Measured values from patent US8609413B2, “Neurons, astrocytes and oligodendrocytes differentiated from a mammalian pluripotent or neural stem cells exposed to a pyridine deriviative” (Research Development Foundation, priority 2007, dated 2013).
“Also recorded” adds a separate entry of the source.

Assays:
H1 human ES cells = experiment: Neuronal differentiation of human ES cells, differentiation protocol 1; format: cell-based; conditions: vs DMSO
Experimental: Two different protocols were used to induce neuronal differentiation of human ES cells. In the first protocol, human ES cells were mechanically dissociated into small aggregates and plated on laminin/polyornithine coated six-well plates. Cells were cultured 2 weeks in human SR medium (DMEM F-12 supplemented with 15% knockout serum (Gibco), non-essential amino acids, penicillin and streptomycin), followed by 4 weeks in N2 medium. Compounds were added throughout these first 6 weeks. Subsequently, cells were mechanically dissociated and replated on polyornithine/laminin-coated 6 well plates. Throughout the text, this first differentiation protocol will be referred to as “differentiation protocol 1”. The second differentiation protocol was derived from previously described differentiation conditions (Nat et al., 2007). In the second differentiation protocol, undifferentiated human ES cells were mechanically dissociated into small aggregates and cultured in suspension on low-attachment six-well plates. For the first 4 days, they were cultured in neuronal induction medium (DMEM F-12, N2 supplement, penicillin and streptomycin), which was changed to simple neuronal proliferation medium (DMEM F-12, N2 supplement, 20 ng/ml bFGF, penicillin and streptomycin) for 2 additional days. […]
Immunostaining quantification. Immunostaining and nuclear staining quantifications were performed using the MetaXpress software (Molecular devices). Total neurite outgrowth was quantified using the neurite outgrowth analysis module, and total cell numbers were quantified with the count nuclei analysis module.
Phenazopyridine enhances neuronal differentiation of human ES cells. […] After 8 weeks of differentiation, the DMSO-treated cell population was highly heterogeneous as assessed by immunostaining for β3-tubulin, nestin, vimentin and GFAP. […] To quantify neuronal differentiation, the inventors chose to measure total neurite outgrowth and divided it by total cell number at different time points in three independent experiments (FIG. 7A).

[1] = tested on: human ES cell-derived engineered neural tissues (ENTs); experiment: Three-dimensional neuronal differentiation / engineered neural tissues (ENTs) from human ES cells; format: cell-based; conditions: for number / density of rosettes in ENT: first steps of ENT formation, 1 month old ENTs; for non-neural cells / tissue within ENT (mesenchyma, dark pigmented zones), homogeneity: macroscopic view
Source text: ENTs are 3-dimensional pieces of tissues derived from embryonic stem cells (ES) which resemble certain layers of human fetal brain.
For three-dimensional neuronal differentiation, 5-10 spheres were generated as described in differentiation protocol 2 and plated on a pre-cut patch of hydrophilic polytetrafluoroethylene (PTFE) membrane (confetti, 6 mm diameter, 0.4 μm, BioCell-Interface, La Chaux-de-Fonds, Switzerland). Next, the membrane was placed in a Millicell®-CM (0.4 μm) Culture Plate Insert (Millipore) on one ml of N2 medium. The medium was changed every 2-3 days. This method has been described for tissue slices previously (Stoppini et al., 1991) and has been recently adapted to ES cell-derived neural tissue by Preynat-Seauve et al. (attached manuscript).
Next, the activity of phenazopyridine was tested on neuronal differentiation in a three-dimensional culture system.

With Nc1ccc(/N=N/c2ccccc2)c(N)n1 [phenazopyridine] the “total neurite outgrowth divided by total cell number (efficiency of differentiation into mature neurons)” value (H1 human ES cells; 3 μM for first 6 weeks, three independent experiments, p=0.045) was “always superior to DMSO-treated cells”, the “homogeneity of cell population by immunostaining (β3-tubulin, nestin, vimentin, GFAP)” value (H1 human ES cells; after 8 weeks of differentiation) was “more homogeneous, most cells being positive for nestin, β3-tubulin, and vimentin, with occasional neuronal networks” and the “formation of neuronal networks” value (H1 human ES cells; after 10 weeks) was “further neuronal networks formed”. For the same compound, the “quality of engineered neural tissues (ENTs)” value ([1]; 3 μM) was “substantially increased the quality”, the “total number of neural tubes per three-dimensional culture” value ([1]; 2 weeks and 4 weeks of differentiation, vs control) was “significant increase” and the “number / density of rosettes in ENT” value [1] was “improved densities of rosettes”. For the same compound, the “number / density of rosettes in ENT” value ([1]; listed as Phenazopyridine) was “increased the number of rosettes”, the “non-neural cells / tissue within ENT (mesenchyma, dark pigmented zones), homogeneity” value ([1]; with vs without compound) was “decreased the incidence of cells differentiating into non-neuronal cells within ENT” and the “non-neural cells / tissue within ENT (mesenchyma, dark pigmented zones), homogeneity” value ([1]; with vs without compound, listed as phenazopridine) was “displayed less mesenchyma (FIG. 3) and fewer dark pigmented zones; also recorded: more homogenous and appeared to contain a reduced amount of non-neural cells”. For the same compound, the “cartilage by immunofluorescent staining of tenascin C in ENTs” value ([1]; with vs without compound) was “cartilage was not observed”.
